The text below walks through data of ChEMBL document CHEMBL1157121, “Diterpenoids from the feces of Trogopterus xanthipes” (J Nat Prod, 2010).

Type in all cases: functional, cell-based
For experiment [1], the system named is HepG2. The experiment is described as follows: Cytotoxicity against human HepG2 cells after 48 hrs by MTT assay. To be noted: HepG2, 48 h.
Experiment [2] deals with HL-60. In words: Cytotoxicity against human HL60 cells after 48 hrs by MTT assay. The note with it: HL-60, 48 h. Background: Formazan colour is commonly taken as a measure of viable cells.
Experiment [3] concerns Jurkat. The experiment is described as follows: Cytotoxicity against human Jurkat cells after 48 hrs by MTT assay.
Experiment [4] deals with U-937. In words: Cytotoxicity against human U937 cells after 48 hrs by MTT assay. To be noted: U-937, 48 h.

Take `C=C[C@@]1(C)CC[C@H]2[C@@](O)(CC[C@H]3C(C)(C)C(=O)CC[C@@]32C)C1`: the IC50 in experiment [1], in experiment [2], in experiment [3] and in experiment [4] was more than 40 µM throughout.
In the case of `CC(C)c1c(O)ccc2c1CC[C@H]1C(C)(C)[C@@H](O)CC[C@]21C`, the concentration for half-maximal inhibition (IC50) was more than 40 µM in experiment [1], 24.3 µM in experiment [2], more than 40 µM in experiment [3] and 24.7 µM in experiment [4].
With `C=C[C@]1(C)C=C2CC[C@H]3[C@H](C)C(=O)CC[C@]3(C)[C@H]2CC1`, the IC50 in experiment [1], in experiment [2], in experiment [3] and in experiment [4] was more than 40 µM each time.
As for `C=C[C@@]1(C)CC[C@H]2C(=CC[C@H]3C(C)(C)C(=O)CC[C@]23C)C1`, the IC50 in experiment [1] is 32.9 µM; in experiment [2], more than 40 µM; in experiment [3], more than 40 µM; in experiment [4] it was more than 40 µM.
For the compound `C=C[C@]1(C)C=C2CC[C@H]3C(C)(C)C(=O)CC[C@]3(C)[C@H]2CC1`, the IC50 in experiment [1], in experiment [2], in experiment [3] and in experiment [4] was more than 40 µM throughout.
For the compound `C=C[C@@]1(C)CCC2=C(CC[C@H]3C(C)(C)[C@@H](O)CC[C@]23C)C1`, the IC50 in experiment [1], in experiment [2], in experiment [3] and in experiment [4] was more than 40 µM in each case.
In the case of `C=C[C@@]1(C)CC[C@H]2[C@@](O)(CC[C@H]3[C@@](C)(CO)CCC[C@@]32C)C1` [AKHDARDIOL], the IC50 in experiment [1], in experiment [2], in experiment [3] and in experiment [4] was more than 40 µM each time.
`CC(C)c1cc2c(cc1O)[C@@]1(C)CCCC(C)(C)[C@@H]1CC2` [FERRUGINOL]: the IC50 in experiment [1] is more than 40 µM; in experiment [2] it was more than 40 µM; in experiment [3], 35.1 µM; in experiment [4], 19.7 µM.
With `CC[C@@]1(O)C(=O)OCc2c1cc1n(c2=O)Cc2cc3cc(O)ccc3nc2-1` [HYDROXYCAMPTOTHECIN], the IC50 in experiment [1] turned out to be 3.7 µM; in experiment [2] it was 0.04 µM; in experiment [3], 0.03 µM; in experiment [4] it was 0.11 µM.
For `C=C[C@@]1(C)CC[C@H]2C(=CC[C@H]3C(C)(C)[C@@H](O)CC[C@]23C)C1` [ISOPIMARANE] the same measures were more than 40 µM, more than 40 µM, more than 40 µM and more than 40 µM.
On to `CC(C)c1ccc2c(c1O)C[C@@H](O)[C@H]1[C@@](C)(CO)CCC[C@]21C` [MACROPHYNIN E], for which the IC50 in experiment [1], in experiment [2], in experiment [3] and in experiment [4] was more than 40 µM in each case.
Consider `CC(C)c1cc2c(cc1O)CC[C@H]1C(C)(C)CCC[C@]21C` [SEMPERVIROL], for which the half-inhibitory concentration (IC50) in experiment [1], in experiment [2], in experiment [3] and in experiment [4] was more than 40 µM each time.
Consider `CC1=C2C=C[C@]34C[C@](C)(CC[C@@H]3[C@@]2(C)CCC1=O)C(=O)O4` [TROGOPTEROID A], for which the IC50 in experiment [1], in experiment [2], in experiment [3] and in experiment [4] was more than 40 µM throughout.
`C=C[C@]1(C)C[C@]2(O)CC[C@H]3C(C)(C)C(=O)CC[C@]3(C)[C@H]2CC1=O` [TROGOPTEROID B]: the IC50 in experiment [1], in experiment [2], in experiment [3] and in experiment [4] was more than 40 µM in each case.
For the compound `C=C[C@]1(C)CC2(O)CC[C@H]3C(C)(C)C(=O)C=C[C@]3(C)[C@H]2CC1=O` (stereo partly specified) [TROGOPTEROID C], the IC50 in experiment [1], in experiment [2], in experiment [3] and in experiment [4] was more than 40 µM in each case.
For `CC(C)c1c(O)ccc2c1CC[C@H]1[C@@](C)(CO)C(=O)CC[C@]21C` [TROGOPTEROID D], the IC50 in experiment [1], in experiment [2], in experiment [3] and in experiment [4] was more than 40 µM in each case.
Consider `CC(C)c1c(O)ccc2c1C[C@@H](O)[C@H]1C(C)(C)C(=O)CC[C@]21C` [TROGOPTEROID E], for which the IC50 in experiment [1], in experiment [2], in experiment [3] and in experiment [4] was more than 40 µM each time.
Turning to `CC(C)c1cc2c(cc1O)C[C@@H](O)[C@H]1[C@@](C)(CO)CCC[C@]21C` [TROGOPTEROID F], the IC50 in experiment [1], in experiment [2], in experiment [3] and in experiment [4] was more than 40 µM each time.
With `CC(C)c1c(O)ccc2c1CC[C@H]1[C@@](C)(CO)C(=O)C=C[C@]21C` [TROGOPTEROID G], the IC50 in experiment [1], in experiment [2], in experiment [3] and in experiment [4] was more than 40 µM in each case.

A word on the IC50: it is the point on the concentration scale where inhibition reaches its midpoint.
